According to US9850521B2 (Agilent Technologies, Inc., priority 2014, dated 2017):
Entries after “also recorded” stand apart in the source; their conditions may differ.

Biological target: Cas9 (Streptococcus pyogenes serotype M1, UniProt Q99ZW2)
Assay: Cas9 plasmid DNA cleavage assay, testing of surfactants
Assay type: biochemical
Conditions: for effect on Cas9 enzyme activity: FIG. 4, versus absence of surfactants/detergents, two RNA guides; for % cleavage: linearized pKan-C1 substrate DNA, 30 min at 30° C.
Procedure: The reactions were stopped by heat inactivation of the enzyme at 65° C. for 15 minutes. Cleavage reactions were analyzed by Agilent Tape Station using Genomic Screen Tapes.
Reaction mixtures were incubated at 30° C. for 30 minutes followed by heat inactivation of the enzyme. Table 1 lists the surfactants/detergents used at various concentrations and the resulting DNA template cleavage percentage.

Chain of Cas9 (Q99ZW2 whole entry): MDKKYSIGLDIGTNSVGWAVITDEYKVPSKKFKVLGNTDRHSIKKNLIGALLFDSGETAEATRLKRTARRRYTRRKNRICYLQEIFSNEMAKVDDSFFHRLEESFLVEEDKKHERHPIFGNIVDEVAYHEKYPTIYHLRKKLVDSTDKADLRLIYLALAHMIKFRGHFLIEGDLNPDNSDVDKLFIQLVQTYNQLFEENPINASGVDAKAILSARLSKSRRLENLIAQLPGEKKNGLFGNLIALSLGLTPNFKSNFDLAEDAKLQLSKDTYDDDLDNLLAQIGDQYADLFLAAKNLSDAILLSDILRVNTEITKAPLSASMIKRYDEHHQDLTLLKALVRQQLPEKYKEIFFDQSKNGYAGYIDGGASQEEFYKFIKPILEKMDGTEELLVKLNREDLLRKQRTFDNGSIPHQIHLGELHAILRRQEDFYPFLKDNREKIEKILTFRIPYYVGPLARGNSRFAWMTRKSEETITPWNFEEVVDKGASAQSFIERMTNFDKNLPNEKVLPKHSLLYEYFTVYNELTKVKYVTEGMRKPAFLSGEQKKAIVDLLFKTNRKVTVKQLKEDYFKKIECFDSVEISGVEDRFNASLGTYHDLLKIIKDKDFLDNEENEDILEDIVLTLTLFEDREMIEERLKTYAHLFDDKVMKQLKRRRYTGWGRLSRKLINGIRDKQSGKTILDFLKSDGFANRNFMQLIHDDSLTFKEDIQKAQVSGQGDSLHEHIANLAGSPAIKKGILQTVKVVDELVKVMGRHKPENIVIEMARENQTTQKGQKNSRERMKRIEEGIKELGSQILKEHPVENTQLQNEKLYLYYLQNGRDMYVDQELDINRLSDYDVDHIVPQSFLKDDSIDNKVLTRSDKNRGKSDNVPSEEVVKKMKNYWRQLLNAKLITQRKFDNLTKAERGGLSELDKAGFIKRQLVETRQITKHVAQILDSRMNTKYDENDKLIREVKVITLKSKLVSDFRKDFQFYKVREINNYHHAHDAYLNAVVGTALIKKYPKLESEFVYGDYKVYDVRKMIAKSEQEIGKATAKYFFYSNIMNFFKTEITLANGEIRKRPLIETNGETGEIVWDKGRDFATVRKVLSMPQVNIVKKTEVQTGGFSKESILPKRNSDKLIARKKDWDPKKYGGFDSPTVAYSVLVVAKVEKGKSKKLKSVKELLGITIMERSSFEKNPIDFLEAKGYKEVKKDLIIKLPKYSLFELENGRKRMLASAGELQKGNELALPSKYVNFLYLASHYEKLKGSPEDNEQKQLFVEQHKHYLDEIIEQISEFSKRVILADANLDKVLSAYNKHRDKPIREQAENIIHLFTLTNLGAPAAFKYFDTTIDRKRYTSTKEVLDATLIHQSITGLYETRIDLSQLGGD

Molecule | effect on Cas9 enzyme activity | % cleavage (Guide 601, detergent 0.025%) [%] | % cleavage (Guide 601, detergent 0.05%) [%] | % cleavage (Guide 601, detergent 0.1%) [%] | % cleavage (Guide 601, detergent 0.2%) [%] | % cleavage (Kan C1 Guide, detergent 0.025%) [%] | % cleavage (Kan C1 Guide, detergent 0.05%) [%] | % cleavage (Kan C1 Guide, detergent 0.1%) [%] | % cleavage (Kan C1 Guide, detergent 0.2%) [%]
octylphenoxypolyethoxyethanol [Triton X 100] | improved enzyme activity; also recorded: significantly increased Cas9 activity | 0.60 | 0.60 | 0.59 | 0.65 | 0.54 | 0.51 | 0.52 | 0.61
C[C@H](CCC(=O)NCCC[N+](C)(C)CC(O)CS(=O)(=O)[O-])[C@H]1CC[C@H]2[C@@H]3[C@H](O)C[C@@H]4C[C@H](O)CC[C@]4(C)[C@H]3C[C@H](O)[C@]12C (stereo partly drawn) [Chapso, reference compound] | had no effect on Cas9 activity | 0.52 | 0.50 | 0.51 | 0.54 | 0.43 | 0.43 | 0.45 | 0.44
